Experimental data: PMC7313430, “Heme-Dependent ER Stress Apoptosis: A Mechanism for the Selective Toxicity of the Dihydroartemisinin, NSC735847, in Colorectal Cancer Cells” (Frontiers in Oncology, 2020)

Experiments:
HT29 cells = assay: MTS cell viability assay, colon cancer cells HT29; format: cell-based, human; conditions: for effect of pretreatment on NSC735847-mediated cell death: HT29, MTS, pretreatment with the agent, then NSC735847 (10 μM; 5 μM for HTF) 24 h; for IC50: Homo sapiens, HT-29, MTS viability, 24 h treatment; for selective cytotoxicity toward colon cancer cells vs FHC: HT-29/HCT-116 compared to FHC
Experimental: (§1) The human colon cancer cell lines HT29 and HCT116 were cultured in McCoy's 5A medium (Sigma Aldrich, St. Louis, MO) containing 10% heat-inactivated fetal bovine serum (FBS), penicillin (100 units/ml), and streptomycin (100 μg/ml). The non-tumorigenic colon cell line, FHC, was cultured in DMEM: F12 (1:1) medium supplemented with 10% heat inactivated FBS, 25 mM HEPES (Thermo Fisher Scientific Inc., IL), 10 ng/ml cholera toxin (Sigma Aldrich, St. Louis, MO), 0.005 mg/ml insulin (Thermo Fisher Scientific Inc., IL), 0.005 mg/ml, transferrin (Sigma Aldrich, St. Louis, MO), 100 ng/ml hydrocortisone (Sigma Aldrich, St. Louis, MO), 20 ng/mL human recombinant epidermal growth factor (Thermo Fisher Scientific Inc., IL), 100 units/ml penicillin, and 100 μg/ml streptomycin.
(§2) Cells were cultured in 96-well-plates for 48 h before treatment. Serum-free media containing different agents was added to the cells at the concentration and time period described in the figure legend. MTS reagent (Promega, Madison, WI) was then added to each well and the absorbance was measured at 495 nm as directed by the manufacturer. In the presence of MTS reagent, the absorbance reading is proportional to the number of viable cells. The half-maximal inhibitory concentration (IC50) of the tested compounds is the concentration that reduces the viability of cells by 50%. IC50 was calculated after 24 h of treatment ([30], [31]) as described previously ([32]–[34]) from dose-response curves (log drug concentration vs. percentage viability from untreated cells) generated by non-linear regression analysis with GraphPad Prism 5 software (GraphPad Software, San Diego, California).

[1] = tested on: P-PERK, P-eIF2α, CHOP10, PARP, caspase-3, ferritin in HT29 cells; assay: Western blot of ER stress and apoptosis proteins in HT29; format: cell-based, human; conditions: for effect of pretreatment on NSC735847-induced CHOP10 expression: HT29, pretreatment (GSK 10 μM, salubrinal 50 μM, SA 10 mM), then 10 μM NSC735847 8 h
Experimental: Western blot analysis was conducted as described previously ([35]). Briefly, the cells were cultured in 100 mm dishes for 48 h before treatment. The cells were then treated as described in the figure legends. For vehicle-treated samples, DMSO was added to serum-free culture medium at a maximum concentration of 0.1% (v/v). After experimentation, the cells were washed twice with phosphate buffer saline (PBS) and then 100 μl of Triton lysis buffer [25 mM HEPES, 100 mM NaCl, 1 mM EDTA, 10% (v/v) glycerol, 1% (v/v) Triton X-100], containing protease and […] inhibitors, was added to the cells. Protein concentrations were determined by using BCA reagents (Thermo Fisher Scientific Inc., IL). Equal concentrations of each sample were loaded onto SDS–PAGE gels and protein bands transferred to nitrocellulose membranes using semi-dry transfer cells (TRANS-BLOTSD; Bio-Rad Laboratories, Hercules, CA). The membranes were incubated for 2 h at room temperature in Odyssey blocking buffer (LI-COR Biosciences, Lincoln, NE). Membranes were then incubated overnight at 4C with primary antibody followed by 1 h of incubation at room temperature with secondary antibody. All primary antibodies were used at a dilution of 1:1,000 except anti-GAPDH and anti-CHOP10 antibodies which were used at 1:10,000 and 1:500 dilutions, respectively. All secondary antibodies were used at a dilution of 1:15,000. Protein bands were visualized using Odyssey® CLx digital fluorescence imaging system (LI-COR, Lincoln, Nebraska). Band intensities were quantified by using ImageJ software ([36]).

FHC cells = assay: MTS cell viability assay, non-tumorigenic colon cells; format: cell-based; conditions: Homo sapiens, 24 h treatment
Experimental: as §1, §2

HCT116 cells = assay: MTS cell viability assay, colon cancer cells HCT116; format: cell-based, human; conditions: for IC50: Homo sapiens, HCT-116, MTS viability, 24 h treatment; for cytotoxic activity against HCT-116 cells: 3.1-25 μM
Experimental: as §1, §2

[2] = tested on: caspase 3/7 activity in HT29 cells; assay: Caspase-Glo 3/7 activity assay in HT29; format: cell-based, human; conditions: for tumor selectivity of apoptosis induction (caspase 3/7, words): 16 h, HT29 compared to HCT-116 and FHC; for effect of pretreatment on NSC735847-induced caspase 3/7 activity: HT29, pretreatment 1 h (GSK 10 μM, SAL 50 μM), then 10 μM NSC735847 16 h
Experimental: The cells were plated in white-walled 96-well-plates and then they were cultured at 37°C for 48 h. Serum-free culture medium containing the appropriate concentration of different agents was added to the cells for the indicated period of time. Caspase-Glo 3/7 reagent (Promega, Madison, WI) was added to each well and luminescence was detected as directed by the manufacturer. The Caspase-Glo 3/7 kit measures the activity of the executioner caspases 3 and 7 using the luminogenic substrate (Z-DEVD-aminoluciferin) as substrate.

[3] = tested on: reactive oxygen species in HT29 cells; assay: Oxidative stress measurement with CM-H2DCFDA (DCF); format: cell-based, human; conditions: HT29, 0.25 mM Trolox 2 h, then 10 μM NSC735847 8 h
Experimental: Oxidative stress was measured in cultured cells by using the probe, chloromethyl-2′,7′ dichlorodihydrofluorescein diacetate (CM-H2DCFDA or DCF) purchased from Life Technologies (Grand Island, NY). […] The cells were loaded with 5 μM DCF in phenol red-free, serum-free medium for 30 min and then the cells were treated with the appropriate drug for the indicated period of time. The cells were then trypsinized and resuspended in serum-containing, phenol red-free medium. The fluorescence of DCF was measured using an Accuri C6 flow cytometer (BD Accuri Cytometers, Ann Arbor, MI) at an excitation wavelength of 488 and emission of 533 ± 30 nm.

[4] = MTS, 24 h, single agents or combinations

## CC(=O)N(O)CCCCCNC(=O)CCC(=O)N(O)CCCCCNC(=O)CCC(=O)N(O)CCCCCN [DFO, deferoxamine, reference compound]
HT29 cells
  effect of pretreatment on NSC735847-mediated cell death: did not prevent NSC735847-mediated cell death
[1]; HT29, 100 μM DFO 4 h, then 10 μM NSC735847 24 h
  effect of pretreatment on NSC735847-mediated ferritin protein expression: inhibited NSC735847-mediated ferritin expression

## CC1CCC2C(C)C(OCC(COC3OC4OC5(C)CCC6C(C)CCC(C3C)C46OO5)NNC(=O)c3ccncc3)OC3OC4(C)CCC1C32OO4 (stereo not drawn) [compound (2)]
FHC cells
  IC50: 23.2 ± 1.04 µM
HT29 cells
  IC50: 19.6 ± 1.06 µM
HT29 cells; MTS, 24 h
  selective cytotoxicity toward colon cancer cells vs FHC: not selectively cytotoxic toward either colon cancer cell line
HCT116 cells
  IC50: 22.1 ± 1.06 µM
[2]
  tumor selectivity of apoptosis induction (caspase 3/7, words): increase in apoptosis in HT29 compared to HCT-116 and FHC cells

## CC1CCC2C(C)C(OCC(COC3OC4OC5(C)CCC6C(C)CCC(C3C)C46OO5)N3CCOCC3)OC3OC4(C)CCC1C32OO4 (stereo not drawn) [compound (1)]
FHC cells
  IC50: > 25 µM
HT29 cells
  IC50: > 25 µM
HT29 cells; MTS, 24 h
  selective cytotoxicity toward colon cancer cells vs FHC: not selectively cytotoxic toward either colon cancer cell line
HCT116 cells
  IC50: > 25 µM
[2]
  tumor selectivity of apoptosis induction (caspase 3/7, words): did not exhibit tumor selectivity

## CC1CCC2C(C)C(OCC(COC3OC4OC5(C)CCC6C(C)CCC(C3C)C46OO5)NCc3ccccc3)OC3OC4(C)CCC1C32OO4 (stereo not drawn) [(5)]
FHC cells
  IC50: > 25 µM
HT29 cells
  IC50: 15.2 ± 1.12 µM
HT29 cells; MTS, 24 h
  selective cytotoxicity toward colon cancer cells vs FHC: more cytotoxic toward HT-29 than FHC cells
HCT116 cells
  IC50: > 25 µM
HCT116 cells; MTS, 24 h
  cytotoxic activity against HCT-116 cells: inactive
[2]
  tumor selectivity of apoptosis induction (caspase 3/7, words): preferentially induced apoptosis in HT-29 compared to FHC cells

## CC(=O)CC(=O)CCC(=O)O [succinylacetone, reference compound]
HT29 cells
  effect of pretreatment on NSC735847-mediated cell death: rescued the cells from the cytotoxic effects of NSC735847
[1]
  effect of pretreatment on NSC735847-induced CHOP10 expression: blunted NSC735847-induced CHOP10 expression

## O=C1[O][Pt]2([NH][C@@H]3CCCC[C@H]3[NH]2)[O]C1=O [OX, oxaliplatin, reference compound]
HT29 cells; [4]
  cell death / survival of HT29 cells: induced death in a concentration-dependent manner
HCT116 cells; [4]
  cell death / survival of HCT116 cells: induced death in a concentration-dependent manner

## Cc1c(C)c2c(c(C)c1O)CCC(C)(C(=O)O)O2 (stereo not drawn) [Trolox, reference compound]
HT29 cells
  effect of pretreatment on NSC735847-mediated cell death: did not rescue the cells from NSC735847-induced cytotoxicity
[3]
  effect of pretreatment on NSC735847-induced oxidative stress: significant reduction in oxidative stress

## CC1CCC2C(C)C(OCC(COC3OC4OC5(C)CCC6C(C)CCC(C3C)C46OO5)N3CCCCC3)OC3OC4(C)CCC1C32OO4 (stereo not drawn) [(4)]
FHC cells
  IC50: > 25 µM
HT29 cells
  IC50: > 25 µM
HT29 cells; MTS, 24 h
  selective cytotoxicity toward colon cancer cells vs FHC: more cytotoxic toward HT-29 than FHC cells
HCT116 cells
  IC50: > 25 µM
HCT116 cells; MTS, 24 h
  cytotoxic activity against HCT-116 cells: inactive
[2]
  tumor selectivity of apoptosis induction (caspase 3/7, words): preferentially induced apoptosis in HT-29 compared to FHC cells

## O=C(/C=C/c1ccccc1)NC(NC(=S)Nc1cccc2cccnc12)C(Cl)(Cl)Cl (stereo not drawn) [salubrinal, reference compound]
HT29 cells
  effect of pretreatment on NSC735847-mediated cell death: blocked
[2]
  effect of pretreatment on NSC735847-induced caspase 3/7 activity: blocked
[1]
  effect of pretreatment on NSC735847-induced CHOP10 expression: blocked CHOP10 expression

## HTF: iron-loaded transferrin molecule
HT29 cells
  effect of pretreatment on NSC735847-mediated cell death: did not enhance the killing effect of NSC735847

## O=C(CC(c1ccccc1)c1ccccc1)Cn1ccnc1 [QC-308, reference compound]
HT29 cells
  effect of pretreatment on NSC735847-mediated cell death: increased the cytotoxicity of NSC735847

## Cn1cc(-c2ccc3c(c2)CCN3C(=O)Cc2cccc(C(F)(F)F)c2)c2c(N)ncnc21 [GSK2606414, 7-methyl-5-(1-{[3-(trifluoromethyl)phenyl]acetyl}-2,3-dihydro-1H-indol-5-yl)-7H-p yrrolo[2,3-d]pyrimidin-4-amine, reference compound]
HT29 cells
  effect of pretreatment on NSC735847-mediated cell death: suppressed NSC735847-mediated cell death
[2]
  effect of pretreatment on NSC735847-induced caspase 3/7 activity: inhibited caspase 3/7 activity
[1]; HT29, 10 μM pretreatment 1 h, then 10 μM NSC735847 1 h
  effect of pretreatment on NSC735847-induced PERK phosphorylation: decreased the phosphorylation of PERK
[1]
  effect of pretreatment on NSC735847-induced CHOP10 expression: decreased
